Each structure is given as a SMILES string. Where two headings read alike, the source gives them in different places.

Results on 3 molecules are retold here after US11771662B2, “Analgesic formulation for control of pain in dogs” (Kansas State University Research Foundation, priority 2017, dated 2023).

In one data set the test system is healthy Beagle dogs. Kind of data set: Rectal temperature as marker of central opioid effects, methadone/fluconazole with or without naltrexone (Example II). The settings on record: naltrexone 0.25 mg/kg PO added to methadone 1 mg/kg and fluconazole 5 mg/kg PO. Type of data set: in vivo, dog.
A short description of data set [1]: Plasma methadone, fluconazole, naltrexone and naltrexone metabolite concentrations (Example IV). The text has this: Anesthesia was monitored by licensed veterinary technicians.
For data set [2] the following is noted: group administered naltrexone 0.25 mg/kg PO with methadone and fluconazole.
Excerpt: (§1) Twelve healthy Beagle dogs were divided into two groups of 6 each in a parallel study design. […] Rectal temperature was monitored as a marker of central opioid effects throughout the study.
The nature of data set [3]: Plasma methadone, naltrexone and naltrexone metabolites, multiple oral doses (Example III). The data set is classed as in vivo, dog. The settings on record: multiple oral doses of methadone/fluconazole/naltrexone formulation.
Excerpt: Twelve healthy Beagle dogs were divided into two groups of 6 each in a parallel study design. […] Group 1 simulated a patient dropped off the night before surgery, while Group 2 simulated a patient dropped off in the morning for same day early afternoon surgery. Rectal temperature was monitored as a marker of central opioid effects throughout the study and von Frey thresholds were obtained to assess the antinociceptive effects.

Excerpt for healthy Beagle dogs: as §1

As for `O=C1CC[C@@]2(O)[C@H]3Cc4ccc(O)c5c4[C@@]2(CCN3CC2CC2)[C@H]1O5` [naltrexone], the “Effect of addition of naltrexone on central opioid effects of methadone with fluconazole” value in the data set with healthy Beagle dogs is on record as “did not affect the central opioid effects”. Moreover, the “Plasma detection of analyte” value in data set [1] (any group) is on record as “not detected in any plasma sample from any group”. In addition, the “Plasma detection of analyte relative to LOQ of the assay (1 ng/mL)” value in data set [2] and in data set [3] was “rarely detected above the LOQ” in each case.

As to `O=C(O)[C@H]1O[C@@H](Oc2ccc3c4c2O[C@H]2C(=O)CC[C@@]5(O)[C@@H](C3)N(CC3CC3)CC[C@]425)[C@H](O)[C@@H](O)[C@@H]1O` [naltrexone glucuronide], the “Plasma detection of analyte” value in data set [1] (oral methadone groups) is reported as “measured in most of the samples”; in data set [2] it was “detected”; in data set [3], “detected in both groups”.

Consider `Oc1ccc2c3c1O[C@H]1[C@H](O)CC[C@@]4(O)[C@@H](C2)N(CC2CC2)CC[C@]314` [β-naltrexol], for which, in data set [1] (oral methadone groups), the “Highest measured plasma concentration” value was 1.7 ng/mL.
